Source: DBAASP
Values after ≈ are worked out from the molar mass of the structure shown.

Legend:
Assay in all cases: ≥ marks a high value that may be exact or a test limit, other limits are often not marked, values filed in µg/mL are converted to µM
Escherichia coli = system: Escherichia coli
Staphylococcus aureus = system: Staphylococcus aureus
Escherichia coli UB1005 = system: Escherichia coli UB1005
[1] = system: Pseudomonas aeruginosa PAO1
[2] = system: Staphylococcus aureus ATCC 25923
[3] = system: Escherichia coli ATCC 25922
[4] = system: Staphylococcus aureus ATCC 29213
[5] = system: Klebsiella pneumoniae ATCC 700603
[6] = system: Enterococcus faecalis ATCC 29212
[7] = system: Pseudomonas aeruginosa ATCC 27853
[8] = system: Candida albicans ATCC 90028

| MIC (Escherichia coli) | MIC (Staphylococcus aureus) | MIC [3] | MIC [4] | Structure (SMILES) | other results |
| --- | --- | --- | --- | --- | --- |
| 25 µM (≈ 51.3 µg/mL) | > 100 µM |  |  | CC[C@H](C)[C@H](NC(=O)[C@H](CCCCN)NC(=O)[C@H](CCCCN)NC(=O)CNC(=O)[C@@H](NC(=O)CNC(=O)[C@H](Cc1ccccc1)NC(=O)[C@H](CC(N)=O)NC(=O)CNC(=O)[C@H](CO)NC(=O)[C@H](CC(C)C)NC(=O)[C@@H](NC(=O)[C@@H](N)CO)[C@@H](C)CC)C(C)C)C(=O)N[C@H](C(=O)N[C@H]1CSSC[C@@H](C(=O)O)NC(=O)[C@H](CC(C)C)NC(=O)CNC(=O)[C@H](CO)NC(=O)[C@H](CC(C)C)NC(=O)CNC1=O)C(C)C [SILSGNFGVGKKIVCGLSGLC] |  |
| 25 µM (≈ 40.2 µg/mL) | 12.5 µM (≈ 20.1 µg/mL) |  |  | CC[C@H](C)[C@H](NC(=O)CN)C(=O)NCC(=O)N[C@@H](CO)C(=O)N[C@@H](CC(C)C)C(=O)N[C@@H](CC(C)C)C(=O)N[C@@H](C)C(=O)N[C@@H](CCCCN)C(=O)N[C@@H](C)C(=O)N[C@@H](C)C(=O)N[C@@H](CCCCN)C(=O)N[C@@H](CC(C)C)C(=O)NCC(=O)N[C@@H](C)C(=O)N[C@@H](CC(N)=O)C(=O)N[C@@H](CC(C)C)C(=O)N[C@@H](CC(C)C)C(N)=O [GIGSLLAKAAKLGANLL] |  |
|  |  |  |  | CC(C)C[C@H](NC(=O)[C@H](Cc1ccc(O)cc1)NC(=O)[C@@H]1CCCN1C(=O)[C@@H]1CCCN1C(=O)[C@H](CCCCN)NC(=O)[C@H](CC(=O)O)NC(=O)[C@@H](N)C(C)C)C(=O)N1CCC[C@H]1C(=O)N[C@@H](CCCN=C(N)N)C(=O)N1CCC[C@H]1C(=O)N[C@@H](CCCN=C(N)N)C(=O)N1CCC[C@H]1C(=O)N1CCC[C@H]1C(=O)N[C@@H](CCCN=C(N)N)C(=O)N[C@@H](CCCN=C(N)N)C(=O)N[C@@H](Cc1ccccc1)C(=O)N[C@@H](Cc1ccc(O)cc1)C(=O)N[C@@H](CC(N)=O)C(=O)N[C@@H](CCCN=C(N)N)C(N)=O [VDKPPYLPRPRPPRRFYNR] | MIC (Escherichia coli UB1005): 0.364 µM (≈ 0.883 µg/mL); MIC [1]: 106 µM (≈ 256 µg/mL); MIC [2]: 6.6 µM (≈ 16 µg/mL) |
| 40 µM (≈ 71.9 µg/mL) |  | 10 µM (≈ 18 µg/mL) | > 40 µM | CC(C)C[C@H](NC(=O)[C@H](CCCCN)NC(=O)[C@H](CC(C)C)NC(=O)[C@H](CC(C)C)NC(=O)[C@H](CCCCN)NC(=O)[C@H](CCCCN)NC(=O)[C@@H]1CSSC[C@H](N)C(=O)N[C@@H](CCCCN)C(=O)N[C@@H](CCCCN)C(=O)N[C@@H](CC(C)C)C(=O)N[C@@H](CC(C)C)C(=O)N[C@@H](CCCCN)C(=O)N[C@@H](CC(C)C)C(=O)N1)C(=O)N[C@@H](C)C(=O)NCC(=O)O [CKKLLKLCKKLLKLAG] |  |
|  |  | 26.3 µM (≈ 63.9 µg/mL) |  | CC[C@H](C)[C@H](NC(=O)[C@@H](NC(=O)[C@@H]1CCCN1C(=O)[C@@H](NC(=O)[C@@H]1CCCN1C(=O)[C@H](CCCCN)NC(=O)[C@H](CCCCN)NC(=O)[C@H](CO)NC(=O)CN)C(C)C)[C@@H](C)CC)C(=O)N[C@@H](Cc1ccc(O)cc1)C(=O)N[C@H]1CSSC[C@@H](C(=O)N[C@@H](CCC(N)=O)C(=O)N[C@@H](CCCN=C(N)N)C(=O)N[C@@H](CCSC)C(=O)O)NC(=O)[C@H](CCCCN)NC(=O)[C@H](C)NC(=O)[C@H](CO)NC(=O)[C@H](CCCN=C(N)N)NC(=O)[C@H](CCCN=C(N)N)NC(=O)[C@H](CC(N)=O)NC1=O [GSKKPVPIIYCNRRSAKCQRM] | MIC [5]: 26.3 µM (≈ 63.9 µg/mL) |
|  |  | 5.6 µM (≈ 14.9 µg/mL) |  | CC[C@H](C)[C@H](NC(=O)[C@H](CCCCN)NC(=O)[C@H](CO)NC(=O)[C@H](Cc1c[nH]c2ccccc12)NC(=O)[C@H](CC(C)C)NC(=O)CN)C(=O)N[C@@H](CCCCN)C(=O)N[C@@H](CCC(=O)O)C(=O)N[C@@H](C)C(=O)N[C@@H](C)C(=O)N[C@@H](CCCCN)C(=O)N[C@H](C(=O)N[C@@H](C)C(=O)NCC(=O)N[C@@H](CC(C)C)C(=O)N[C@@H](CCSC)C(=O)N[C@@H](C)C(=O)N[C@@H](CCSC)C(=O)NCC(=O)N[C@@H](Cc1ccccc1)C(=O)N[C@H](C(=O)N[C@@H](CC(N)=O)C(=O)N[C@@H](CC(=O)O)C(=O)N[C@@H](CCSC)C(=O)N[C@H](C(=O)O)C(C)C)C(C)C)[C@@H](C)O [GLWSKIKEAAKTAGLMAMGFVNDMV] | MIC [6]: 11 µM (≈ 29.4 µg/mL); MIC [7]: 22 µM (≈ 58.7 µg/mL); MIC [2]: 22 µM (≈ 58.7 µg/mL) |
| 2.4 µM (≈ 5.6 µg/mL) | 4.8 µM (≈ 11.2 µg/mL) |  |  | CC[C@H](C)[C@H](NC(=O)[C@H](Cc1c[nH]c2ccccc12)NC(=O)[C@H](CCCCN)NC(=O)[C@@H](NC(=O)[C@H](CC(C)C)NC(=O)[C@H](CCCCN)NC(=O)CNC(=O)[C@@H](NC(=O)[C@@H](NC(=O)[C@@H](N)CO)[C@@H](C)O)[C@@H](C)CC)C(C)C)C(=O)N[C@H](C(=O)N[C@@H](CCCCN)C(=O)N[C@H](C(=O)N[C@H](C(=O)N[C@@H](CC(N)=O)C(=O)N[C@@H](CCCCN)C(=O)N[C@@H](Cc1ccccc1)C(=O)N[C@H](C(=O)N[C@@H](CCCCN)C(=O)N[C@@H](CCCCN)C(=O)O)[C@@H](C)O)C(C)C)[C@@H](C)O)[C@@H](C)CC [STIGKLVKWIIKTVNKFTKK] |  |
|  |  | 5 µM (≈ 9.02 µg/mL) | > 40 µM | CC(C)C[C@H](NC(=O)[C@H](CCCCN)NC(=O)[C@H](CC(C)C)NC(=O)[C@H](CC(C)C)NC(=O)[C@H](CCCCN)NC(=O)[C@H](CCCCN)NC(=O)[C@@H]1CCCN1C(=O)[C@H](CC(C)C)NC(=O)[C@H](CCCCN)NC(=O)[C@H](CC(C)C)NC(=O)[C@H](CC(C)C)NC(=O)[C@H](CCCCN)NC(=O)[C@H](CCCCN)NC(=O)[C@@H](N)CC(C)C)C(=O)N[C@@H](C)C(=O)NCC(=O)O [LKKLLKLPKKLLKLAG] |  |
|  |  |  |  | CC(C)C[C@H](NC(=O)[C@H](Cc1ccc(O)cc1)NC(=O)[C@@H]1CCCN1C(=O)[C@@H]1CCCN1C(=O)[C@H](CCCCN)NC(=O)[C@@H]1CCCN1C(=O)[C@@H](N)C(C)C)C(=O)N1CCC[C@H]1C(=O)N[C@@H](CCCN=C(N)N)C(=O)N1CCC[C@H]1C(=O)N[C@@H](CCCN=C(N)N)C(=O)N1CCC[C@H]1C(=O)N1CCC[C@H]1C(=O)N[C@@H](CCCN=C(N)N)C(=O)N[C@@H](CCCN=C(N)N)C(=O)N[C@@H](Cc1ccccc1)C(=O)N[C@@H](Cc1ccc(O)cc1)C(=O)N[C@@H](CC(N)=O)C(=O)N[C@@H](Cc1cnc[nH]1)C(N)=O [VPKPPYLPRPRPPRRFYNH] | MIC (Escherichia coli UB1005): 16.8 µM (≈ 40 µg/mL); MIC [1]: 107 µM (≈ 256 µg/mL); MIC [2]: 3.35 µM (≈ 8 µg/mL) |
|  |  | 10 µM (≈ 15 µg/mL) | 40 µM (≈ 59.8 µg/mL) | CC[C@H](C)[C@H](NC(=O)[C@H](CCCN=C(N)N)NC(=O)[C@H](CCC(N)=O)NC(=O)[C@@H](NC(=O)[C@@H](NC(=O)[C@H](CCCN=C(N)N)NC(=O)[C@@H](N)CCCCN)[C@@H](C)CC)C(C)C)C(=O)N[C@@H](CCCCN)C(=O)N[C@@H](CC(=O)O)C(=O)N[C@@H](C)C(=O)N[C@@H](CC(C)C)C(=O)N[C@@H](CCCN=C(N)N)C(=O)O [KRIVQRIKDALR] | MIC [7]: 20 µM (≈ 29.9 µg/mL); MIC [8]: 20 µM (≈ 29.9 µg/mL) |
|  |  | 20 µM (≈ 39.8 µg/mL) | 40 µM (≈ 79.5 µg/mL) | NCC(=O)N[C@@H](CCCN=C(N)N)C(=O)N[C@@H](CCCN=C(N)N)C(=O)N1CCC[C@H]1C(=O)N[C@@H](CCCN=C(N)N)C(=O)N1CCC[C@H]1C(=O)N[C@@H](CCCN=C(N)N)C(=O)N1CCC[C@H]1C(=O)N[C@@H](CCCN=C(N)N)C(=O)N1CCC[C@H]1C(=O)N[C@@H](Cc1c[nH]c2ccccc12)C(=O)N[C@@H](Cc1c[nH]c2ccccc12)C(=O)N[C@@H](Cc1c[nH]c2ccccc12)C(=O)N[C@@H](Cc1c[nH]c2ccccc12)C(N)=O [GRRPRPRPRPWWWW] | MIC [7]: 20 µM (≈ 39.8 µg/mL) |
| 25 µM (≈ 42.5 µg/mL) | 6 µM (≈ 10.2 µg/mL) |  |  | CC[C@H](C)[C@H](NC(=O)[C@H](CCCCN)NC(=O)[C@H](CC(C)C)NC(=O)[C@H](C)NC(=O)[C@H](CCCCN)NC(=O)CNC(=O)[C@H](CC(C)C)NC(=O)[C@H](CC(C)C)NC(=O)[C@H](CO)NC(=O)CNC(=O)[C@H](Cc1ccccc1)NC(=O)CN)C(=O)NCC(=O)N[C@H](C(=O)N[C@@H](CC(N)=O)C(=O)N[C@@H](CC(C)C)C(=O)N[C@@H](CC(C)C)C(N)=O)[C@@H](C)O [GFGSLLGKALKIGTNLL] |  |
|  |  | 20 µM (≈ 32.6 µg/mL) | > 40 µM | CC[C@H](C)[C@H](NC(=O)[C@H](CCCN=C(N)N)NC(=O)[C@H](CCC(N)=O)NC(=O)[C@@H](NC(=O)[C@@H](NC(=O)[C@H](CCCN=C(N)N)NC(=O)[C@H](CCCCN)NC(=O)[C@@H](N)Cc1ccccc1)[C@@H](C)CC)C(C)C)C(=O)N[C@@H](CCCCN)C(=O)N[C@@H](CC(=O)O)C(=O)NCC(=O)N[C@@H](CC(C)C)C(=O)N[C@@H](CCCN=C(N)N)C(=O)O [FKRIVQRIKDGLR] |  |
| 2.1 µM (≈ 4.5 µg/mL) | 3.7 µM (≈ 7.94 µg/mL) |  |  | CC[C@H](C)[C@H](N)C(=O)NCC(=O)N[C@@H](CCCCN)C(=O)N[C@@H](CC(C)C)C(=O)N[C@H](C(=O)N[C@@H](CCCCN)C(=O)N[C@@H](Cc1c[nH]c2ccccc12)C(=O)N[C@H](C(=O)N[C@H](C(=O)N[C@@H](CCCCN)C(=O)N[C@H](C(=O)N[C@H](C(=O)N[C@@H](CC(N)=O)C(=O)N[C@@H](CCCCN)C(=O)N[C@@H](Cc1ccccc1)C(=O)N[C@H](C(=O)N[C@@H](CCCCN)C(=O)N[C@@H](CCCCN)C(=O)O)[C@@H](C)O)C(C)C)[C@@H](C)O)[C@@H](C)CC)[C@@H](C)CC)C(C)C [IGKLVKWIIKTVNKFTKK] |  |
|  |  | 5 µM (≈ 7.86 µg/mL) | 10 µM (≈ 15.7 µg/mL) | CC[C@H](C)[C@H](NC(=O)[C@H](CCCCN)NC(=O)[C@H](CC(=O)O)NC(=O)[C@H](Cc1ccccc1)NC(=O)[C@H](CC(C)C)NC(=O)[C@@H](N)CCCN=C(N)N)C(=O)N[C@@H](CCCN=C(N)N)C(=O)N[C@@H](CCC(N)=O)C(=O)N[C@H](C(=O)N[C@H](C(=O)N[C@@H](CCCN=C(N)N)C(=O)N[C@@H](CCCCN)C(=O)O)[C@@H](C)CC)C(C)C [RLFDKIRQVIRK] | MIC [7]: 10 µM (≈ 15.7 µg/mL); MIC [8]: 5 µM (≈ 7.86 µg/mL) |
